Test [1] concerns the target T1, Par17 (Homo sapiens, UniProt Q9Y237).
T1 construct: full‐length Par17 and the N‐terminus of Par17; GST-His6 (PreScission site) (N, cleaved yes); Gly-Pro remnant of the PreScission site (Gly stands at position 1 in place of Met1); made in house; host or cells: E. coli BL21 (DE3) T1r
As to the kind of experiment: Protease-coupled isomerase assay (PPIase assay) with Par17. The format is biochemical. The settings on record: for k cat/K M of Par17, times higher than for Leu‐Pro, Gln‐Pro or His‐Pro peptides: ratio of k cat/K M values; for k = kobserved - kthermic, Par17: α-chymotrypsin 35 μM, PBS pH 6.8, 10°C, substrate 75 μM, PPIase 2 μM, absorbance 390 nm, mean ± SD. Here is the method: (§1) To determine the catalytic efficiency and substrate specificity of Par14 and Par17, we performed a protease‐coupled assay. In this assay, the trans form of a para‐nitroaniline (pNA) tagged model substrate is cleaved by chymotrypsin, and the resulting change in absorption at 390 nm due to free pNA is measured. When the model substrate is added to the protease‐containing buffer, all trans‐Xaa‐Pro isomers are immediately cleaved by chymotrypsin. Therefore, the extent of the first signal burst observed in the absorption spectrum correlates with the amount of trans isomers of the model substrate formed during the experimental dead time. The remaining cis‐Xaa substrates now start to isomerize by thermal (in the absence of PPIase) or catalytic reaction (in the presence of PPIase). The newly formed trans‐Xaa substrates are immediately cleaved, and isomerization can thus be monitored over time (Figure 2). Eighteen different substrate peptides with varying amino acids at the Xaa position (Suc‐Ala‐Xaa‐Pro‐Phe‐pNa) were measured to determine the isomerase activity and substrate selectivity of Par14 (Par17Δ1–25), Par17, and the catalytic domain (Par17Δ1–60) (Table S1). The catalytic efficiency is obtained from the observed isomerization curves by calculating the difference between the rate constant in the presence of enzyme and the rate constant obtained from thermal isomerization.
(§2) We determined the isomerase activity using the PPIase assay described by. The lyophilized peptides were dissolved in an adequate volume of 0.5 mM‐LiCl/TFE buffer to obtain a 15 mM stock solution. To achieve a stable cis/trans ratio the mixture was incubated overnight at 4°C. The next day a stock solution of 350 μM α‐chymotrypsin in PBS was incubated on ice for at least 20 min. For measurements without PPIase PBS buffer (pH 6.8) was mixed with α‐chymotrypsin to a final concentration of 35 μM in 1 mL. A baseline was recorded for 5 min (Cary 100Bio UV/Vis spectrophotometer, Varian/Agilent, Santa Clara, US, λ: 390 nm, bandwidth: 1.0 nm, average time between measurements: 0.5 s, temperature: 10°C). After 5 min the substrate peptide was added to a final concentration of 75 μM in 1 mL [59]. The solution was mixed by inverting the cuvette three times and the reaction was recorded for 15 min. Measurements in the presence of PPIase were performed in the same way, except that before the baseline measurement, the appropriate isomerase was added in a final concentration of 2 μM in 1 mL in addition to PBS and α‐chymotrypsin.
(§3) For the data analysis, a mean value of the baseline was subtracted (average of the first 200 data points). The measured values were normalized according to the respective maximum of the measurement. To determine the rate constant, the program graph pad was used, and non‐linear curve fitting was applied for each measurement (exponential, one‐phase association). (1) Y=Y0+Plateau−Y0∙1−e^−K∙x
(§4) where x is the time (min), Y is the absorbance, Y 0 is the absorbance when x = 0, Plateau is the Y value at infinite times, K is the rate constant (min^−1).
(§5) The K cat/K M value was calculated according to Equation (2): (2) kcat/KM=kobs−ktherm/PPIase where k cat/K M is the catalytic efficiency (M^−1 s^−1), k obs, rate constant of the observed reaction (s^−1), k therm is the rate constant of the thermic reaction (s^−1), and [PPIase] is the concentration of PPIase used in the assay (M).
(§6) The obtained data are fitted to Equation (2) using a pseudo first‐order assumption. This is the case, if k obs values behave linearly with rising PPIase concentrations.

The target in another test is T2, Par14 (Par17Δ1-25) (Homo sapiens, UniProt Q9Y237).
T2 construct: Comparison of spectra of full‐length parvulin proteins and PPIase domain; GST-His6 (PreScission site) (N, cleaved yes); made in house; host or cells: E. coli BL21 (DE3) T1r
As to the kind of experiment: Protease-coupled isomerase assay (PPIase assay) with Par14. The format is biochemical. As to conditions: α-chymotrypsin 35 μM, PBS pH 6.8, 10°C, substrate 75 μM, PPIase 2 μM, absorbance 390 nm; mean ± SD. Here is the method:
as §1, §2, §3, §4, §5, §6

Test [2] concerns the target T3, PPIase domain (Par17Δ1-60) (Homo sapiens, UniProt Q9Y237).
T3 construct: GST-His6 (PreScission site) (N, cleaved yes); made in house; host or cells: E. coli BL21 (DE3) T1r
As to the kind of experiment: Protease-coupled isomerase assay (PPIase assay) with the catalytic domain. The format is biochemical. The settings on record: α-chymotrypsin 35 μM, PBS pH 6.8, 10°C, substrate 75 μM, PPIase 2 μM, absorbance 390 nm; mean ± SD. Here is the method: as §1, §2, §3, §4, §5, §6

The target in test [3] is T1, Par17. Kind of test: NMR titration of substrate peptides to 15N-labeled full-length Par17. The format is binding. As to conditions: 300 μM Par17, KPi pH 6.7, 20°C. How it is done: The amide signals were assigned and combined chemical shift changes between the signals of free and substrate‐bound isomers were calculated.
For NMR measurements, purified and concentrated proteins in salt‐free buffers were mixed with 10% D2O and 1 μL DSS standard. Spectra were measured on an ultra shield 700‐NMR (Bruker, Billerica, US) with a triple resonance cryoprobe (700 MHz). For recording and processing of data, the software Topspin 3.5 was used. Analysis of spectra was carried out using Cara analysis software 2.3.1 (Rochus L.J. Keller) and/or CcpNmr Analysis 2.3.1 (Department of Molecular and Cell Biology, University of Leicester, UK).
Titration of substrate peptides to ^ 15 N‐labeled full‐length Par17 and the N‐terminus of Par17: The following substrate peptides were diluted in salt‐free 50 mM KPi buffer pH 6.7 to a concentration of 15 mM (Suc: Succinyl, pNA: para‐Nitroanilin):
They were added stepwise to 200 μL of the labeled parvulins (300 μM in 50 mM KPi buffer pH 6.7). Spectra were recorded with the pulse program Best‐TROSY at 20°C. Combined chemical shifts were calculated as described. Microscopic dissociation constant K D was fitted with the following equation (assuming a 1:1 binding model): (4) ∆δ=∆δmax·P+x+KD−P+x+KD^2−4·x·P/2·P
where ∆δmax is the amplitude, P is the protein concentration, X is the concentration of the peptide.
Differences in chemical shift changes could be measured up to 0.001 ppm (error in peak picking). Changes were interpreted as significant if Δ > 0.004 ppm and when appearing consecutively in a linear sequence element.
The microscopic K D describes the binding affinity of the ligand to a single side of an amino acid.

Starred links: 1 amine or outer side, 2 acyl side, 3 side chain; linkers in the order of their positions; H or OH if unused. Residues, ends and D or L forms follow the SMILES beside them. *: point of attachment. pNA = O=[N+]([O-])c1ccc(N*)cc1; Suc = O=C(CCC(=O)[*:2])[*:1]

The results in this text go back to paper PMC12314576, “The Actin‐Binding Prolyl‐Isomerase Par17 Sustains Its Substrate Selectivity by Interdomain Allostery” (Proteins, 2025).

T1 sequence (Q9Y237 1-156 isoform Q9Y237-2): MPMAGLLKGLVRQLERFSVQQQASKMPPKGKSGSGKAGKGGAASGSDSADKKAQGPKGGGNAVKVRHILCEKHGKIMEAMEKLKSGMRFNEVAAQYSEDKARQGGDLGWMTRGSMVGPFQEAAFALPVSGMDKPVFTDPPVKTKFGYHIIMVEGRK
T3 sequence (Q9Y237 36-131, stated change not applied): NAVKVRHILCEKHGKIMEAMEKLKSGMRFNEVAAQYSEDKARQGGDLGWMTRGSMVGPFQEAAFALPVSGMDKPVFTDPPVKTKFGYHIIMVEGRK
T2 sequence (Q9Y237 whole entry, stated change not applied, the tested form may be a part): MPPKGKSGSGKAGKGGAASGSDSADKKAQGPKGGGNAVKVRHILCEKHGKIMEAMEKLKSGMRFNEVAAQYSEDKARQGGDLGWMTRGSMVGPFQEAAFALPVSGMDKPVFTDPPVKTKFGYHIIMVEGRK

Turning to `C[C@H](NC(=O)CCC(=O)O)C(=O)N[C@@H](CCCNC(=N)N)C(=O)N1CCC[C@H]1C(=O)N[C@@H](Cc1ccccc1)C(=O)Nc1ccc([N+](=O)[O-])cc1` [Arg, Suc‐Ala‐Arg‐Pro‐Phe‐pNa] (Suc-ARPF-pNA), on Par17 [1], the “k cat/K M of Par17, times higher than for Leu‐Pro, Gln‐Pro or His‐Pro peptides” value is “approximately 10 times”. In addition, the “k = kobserved - kthermic, Par17” value on Par17 [1] amounted to 0.470 ± 0.037 min⁻¹. Moreover, the “k = kobserved - kthermic, Par14 (Par17Δ1-25)” value (shortened to “k = kobserved … (Par17Δ1-25)”) at Par14 (Par17Δ1-25) was determined as 0.582 ± 0.094 min⁻¹. The “k = kobserved - kthermic, PPIase domain (Par17Δ1-60)” value (from here on “k = kobserved … (Par17Δ1-60)”) in test [2] was determined as 0.683 ± 0.064 min⁻¹. For the same molecule, the “Combined chemical shift perturbation of full length Par17, 115M” value (“Combined chemical shift perturbation … 115M” for short) at Par17 [3] (peptide 0,2 mM) is reported as 0,0060079 ppm; at Par17 [3] (peptide 0,4 mM), 0,00801333 ppm; on Par17 [3] (peptide 1 mM) it was 0,0143348 ppm; at Par17 [3] (peptide 2 mM), 0,02655282 ppm; on Par17 [3] (peptide 3 mM), 0,03809928 ppm; on Par17 [3] (peptide 4 mM), 0,0454705 ppm. For the same molecule, on Par17 [3] (peptide 5 mM), the “Combined chemical shift perturbation … 115M” value was 0,0546769 ppm. The “Combined chemical shift perturbation of full length Par17, 119F” value (“Combined chemical shift perturbation … 119F” below) is 0,00418543 ppm at Par17 [3] (peptide 0,2 mM); 0,00841748 ppm on Par17 [3] (peptide 0,4 mM); 0,01835824 ppm on Par17 [3] (peptide 1 mM); 0,03376697 ppm on Par17 [3] (peptide 2 mM); 0,04577626 ppm on Par17 [3] (peptide 3 mM); 0,05474353 ppm on Par17 [3] (peptide 4 mM). Besides, the “Combined chemical shift perturbation … 119F” value on Par17 [3] (peptide 5 mM) is on record as 0,06351885 ppm. Also, the “Combined chemical shift perturbation of full length Par17, 116V” value (shortened to “Combined chemical shift perturbation … 116V”) on Par17 [3] (peptide 0,4 mM) is 0,06817833 ppm; at Par17 [3] (peptide 1 mM), 0,13037308 ppm; at Par17 [3] (peptide 2 mM) it was 0,18551846 ppm; on Par17 [3] (peptide 3 mM) it was 0,23776807 ppm.

Regarding `CC(C)[C@H](NC(=O)[C@H](C)NC(=O)CCC(=O)O)C(=O)N1CCC[C@H]1C(=O)N[C@@H](Cc1ccccc1)C(=O)Nc1ccc([N+](=O)[O-])cc1` [Val, Suc‐Ala‐Val‐Pro‐Phe‐pNa] (Suc-AVPF-pNA), the “k = kobserved - kthermic, Par17” value at Par17 [1] amounted to 0.011 ± 0.005 min⁻¹. In addition, on Par14 (Par17Δ1-25), the “k = kobserved … (Par17Δ1-25)” value is 0.408 ± 0.432 min⁻¹. Further, in test [2], the “k = kobserved … (Par17Δ1-60)” value is 0.289 ± 0.166 min⁻¹. On Par17 [3] (peptide 0,35 mM), the “Combined chemical shift perturbation of full length Par17, 113G” value (from here on “Combined chemical shift perturbation … 113G”) is 0,024 ppm; the “Combined chemical shift perturbation … 115M” value is given as 0,015 ppm; the “Combined chemical shift perturbation … 116V” value was 0,049 ppm; the “Combined chemical shift perturbation … 119F” value is reported as 0,022 ppm. Moreover, on Par17 [3] (peptide 3 mM), the “Combined chemical shift perturbation … 113G” value was 0,157 ppm; the “Combined chemical shift perturbation … 115M” value was 0,084 ppm; the “Combined chemical shift perturbation … 116V” value was 0,326 ppm; the “Combined chemical shift perturbation … 119F” value was 0,125 ppm. Further, on Par17 [3] (peptide 5 mM), the “Combined chemical shift perturbation … 113G” value is reported as 0,221 ppm; the “Combined chemical shift perturbation … 115M” value is listed as 0,11 ppm; the “Combined chemical shift perturbation … 116V” value is reported as 0,454 ppm; the “Combined chemical shift perturbation … 119F” value is given as 0,167 ppm. In addition, at Par17 [3] (peptide 1,5 mM), the “Combined chemical shift perturbation … 113G” value is on record as 0,099 ppm; the “Combined chemical shift perturbation … 115M” value was 0,055 ppm; the “Combined chemical shift perturbation … 116V” value is 0,201 ppm; the “Combined chemical shift perturbation … 119F” value was 0,08 ppm.

`C[C@H](NC(=O)CCC(=O)O)C(=O)N[C@@H](CCCCN)C(=O)N1CCC[C@H]1C(=O)N[C@@H](Cc1ccccc1)C(=O)Nc1ccc([N+](=O)[O-])cc1` [Lys, Suc‐Ala‐Lys‐Pro‐Phe‐pNa]: the “k cat/K M of Par17, times higher than for Leu‐Pro, Gln‐Pro or His‐Pro peptides” value on Par17 [1] was “approximately 10 times”. Besides, the “k = kobserved - kthermic, Par17” value at Par17 [1] came out at 0.33 ± 0.012 min⁻¹. The “k = kobserved … (Par17Δ1-25)” value on Par14 (Par17Δ1-25) was determined as 0.412 ± 0.014 min⁻¹. Moreover, the “k = kobserved … (Par17Δ1-60)” value in test [2] was determined as 0.442 ± 0.006 min⁻¹. The “Combined chemical shift perturbation … 115M” value at Par17 [3] (peptide 0,2 mM) is reported as 0,00414271 ppm; at Par17 [3] (peptide 1 mM) it was 0,01818939 ppm; at Par17 [3] (peptide 2 mM) it was 0,03362789 ppm; at Par17 [3] (peptide 3 mM), 0,04495973 ppm; on Par17 [3] (peptide 4 mM), 0,05828389 ppm; on Par17 [3] (peptide 5 mM), 0,06478417 ppm. The “Combined chemical shift perturbation … 119F” value is given as 0,00604921 ppm at Par17 [3] (peptide 0,2 mM); 0,02459781 ppm on Par17 [3] (peptide 1 mM); 0,04192915 ppm on Par17 [3] (peptide 2 mM); 0,05880948 ppm on Par17 [3] (peptide 3 mM); 0,07526515 ppm at Par17 [3] (peptide 4 mM); 0,08126177 ppm at Par17 [3] (peptide 5 mM). Further, the “Combined chemical shift perturbation … 116V” value is recorded as 0,06817833 ppm on Par17 [3] (peptide 1 mM), 0,13037308 ppm at Par17 [3] (peptide 2 mM), 0,18551846 ppm at Par17 [3] (peptide 3 mM) and 0,23776807 ppm at Par17 [3] (peptide 4 mM).
